{"source": "paper PMC3353944", "about": "“BC4707 Is a Major Facilitator Superfamily Multidrug Resistance Transport Protein from Bacillus cereus Implicated in Fluoroquinolone Tolerance” (PLoS ONE, 2012)", "target": "T1, BC4707 (Bacillus cereus, UniProt Q816V8)", "T1 construct": "gene BC_4707; full-length with RGSHis6 tag (kept), expressed from pTTQ18 (pBC4707) in E. coli DH5alpha delta-acrAB", "T1 sequence (Q816V8 entry or part of it)": "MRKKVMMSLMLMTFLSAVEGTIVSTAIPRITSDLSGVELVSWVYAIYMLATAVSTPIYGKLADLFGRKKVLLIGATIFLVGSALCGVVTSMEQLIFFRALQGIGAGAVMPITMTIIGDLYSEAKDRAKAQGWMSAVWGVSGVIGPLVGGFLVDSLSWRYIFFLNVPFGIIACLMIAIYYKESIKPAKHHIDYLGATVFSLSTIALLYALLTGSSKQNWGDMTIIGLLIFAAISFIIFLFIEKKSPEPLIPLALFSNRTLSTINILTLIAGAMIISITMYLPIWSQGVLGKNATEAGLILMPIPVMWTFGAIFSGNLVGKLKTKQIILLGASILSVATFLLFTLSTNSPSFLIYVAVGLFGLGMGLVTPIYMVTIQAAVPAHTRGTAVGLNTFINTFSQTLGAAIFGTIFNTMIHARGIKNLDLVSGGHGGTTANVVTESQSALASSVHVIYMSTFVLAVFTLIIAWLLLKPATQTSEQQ", "experiment": "norfloxacin accumulation assay, fluorescence of cell extracts vs empty-vector cells", "type": "cell-based", "conditions": "E. coli DH5alpha delta-acrAB, 100 uM norfloxacin, 20 mM glucose, pH 7.0; CCCP (100 uM) added at 15 min"}
{"smiles": "CCn1cc(C(=O)O)c(=O)c2cc(F)c(N3CCNCC3)cc21", "note": "[norfloxacin]", "values": [{"measurement": "norfloxacin accumulation assay, fluorescence of cell extracts vs empty-vector ce", "value": "indicating that the presence of BC4707-RGSHis6 prevents accumulation of norfloxacin in the cells"}]}
